Assay: Stability of the crystal forms based on DSC endothermic test
Format: physicochemical
Conditions: analysis based on measurement results of a DSC endothermic test; rank order among polymorphs of compound (I)
Excerpt: FIGS. 1, 4 and 7 show the IR (KBr) spectrum, DSC endothermic curve and X-ray diffraction pattern of the crystals, respectively.
FIGS. 2, 5 and 8 show the IR (KBr) spectrum, DSC endothermic curve and X-ray diffraction pattern of the crystals, respectively.
FIGS. 3, 6 and 9 show the […]

C#CCC/C(O)=C(\C#N)C(=O)Nc1ccc(C(F)(F)F)cc1 [B-form crystals, 2-cyano-3-hydroxy-N-(4-trifluoromethylphenyl) hept-2-en-6-ynamide]
stability order of the crystal forms: B-form crystals>C-form crystals>A-form crystals

Reference: patent US20060217440A1, “Porcess for production of 2-cyano-3-hydroxy-n-(4-trifluoromethylphenyl)hept-2-en-6-ynamide and process for production of polymorphs thereof” (priority 2003, published 2006)
